From patent publication US10246456B2, “IRAK4 inhibiting agents” (BIOGEN MA INC., priority 2014, dated 2019)

Molecular target: IRAK4 (Homo sapiens (Human), UniProt Q9NWZ3)
Assay: IRAK-4 AlphaScreen biochemical kinase assay
Settings: 1 nM IRAK4, 1 mM ATP, 3.5 h at RT
Method in brief: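 AlphaScreen read-out: streptavidin beads bind the biotinylated peptide and protein A beads bind the anti-phosphothreonine antibody, so energy transfer reports phosphorylation of the peptide. The kinase is human IRAK-4.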

IRAK4, sequence (Q9NWZ3 whole entry, species assumed): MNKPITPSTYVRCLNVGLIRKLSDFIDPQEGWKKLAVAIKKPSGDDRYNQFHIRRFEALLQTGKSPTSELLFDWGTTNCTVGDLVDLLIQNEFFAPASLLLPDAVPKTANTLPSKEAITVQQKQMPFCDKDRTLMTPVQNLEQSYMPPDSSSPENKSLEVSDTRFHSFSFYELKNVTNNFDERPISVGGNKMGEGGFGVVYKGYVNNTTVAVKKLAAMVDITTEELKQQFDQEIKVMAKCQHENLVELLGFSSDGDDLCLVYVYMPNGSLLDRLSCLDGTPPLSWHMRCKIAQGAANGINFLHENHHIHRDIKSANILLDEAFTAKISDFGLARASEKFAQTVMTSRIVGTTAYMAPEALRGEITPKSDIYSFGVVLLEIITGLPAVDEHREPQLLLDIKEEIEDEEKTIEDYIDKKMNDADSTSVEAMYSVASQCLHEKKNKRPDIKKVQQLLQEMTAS

| Structure (SMILES) | IC50 [nM] |
| --- | --- |
| Cc1cccc(-n2ncc3ccc(-c4cc(N)cc(C(C)N)n4)cc32)n1 (stereo not drawn) [Example 256, 2-(1-aminoethyl)-6-(1-(6-methylpyridin-2-yl)-1H-indazol-6-yl)pyridin-4-amine] | < 100 |
| Cc1cccc(-n2ncc3ccc(-c4cn(C)c(CO)n4)cc32)n1 [Example 257, (1-methyl-4-(1-(6-methylpyridin-2-yl)-1H-indazol-6-yl)-1H-imidazol-2-yl)methanol] | < 100 |
| Cc1cccc(-n2ncc3ccc(-c4cccc(C(N)C#N)n4)cc32)n1 (stereo not drawn) [Example 258, 2-amino-2-(6-(1-(6-methylpyridin-2-yl)-1H-indazol-6-yl)pyridin-2-yl)acetonitrile] | 100 to 1000 |
| COC(=O)CC(N)c1cccc(-c2ccc3cnn(-c4cccc(C)n4)c3c2)n1 (stereo not drawn) [Example 261, methyl 3-amino-3-(6-(1-(6-methylpyridin-2-yl)-1H-indazol-6-yl)pyridin-2-yl)propanoate] | < 100 |
| Cc1cccc(-n2ncc3ccc(-c4cccc(C5(N)CC5)n4)cc32)n1 [Example 262, 1-(6-(1-(6-methylpyridin-2-yl)-1H-indazol-6-yl)pyridin-2-yl)cyclopropanamine] | 100 to 1000 |
| CCC[C@H](N)c1cccc(-c2ccc3cnn(-c4cccc(C)n4)c3c2)n1 [Example 265, (S)-1-(6-(1-(6-methylpyridin-2-yl)-1H-indazol-6-yl)pyridin-2-yl)butan-1-amine] | < 100 |
| Cc1cccc(-n2ncc3ccc(-c4ccc(Cl)c(C(C)N)n4)cc32)n1 (stereo not drawn) [Example 266, 1-(3-chloro-6-(1-(6-methylpyridin-2-yl)-1H-indazol-6-yl)pyridin-2-yl)ethanamine] | 100 to 1000 |
| Cc1cccc(-n2ncc3ccc(-c4cccc(C(N)C(N)=O)n4)cc32)n1 (stereo not drawn) [Example 267, 2-amino-2-(6-(1-(6-methylpyridin-2-yl)-1H-indazol-6-yl)pyridin-2-yl)acetamide] | 100 to 1000 |
| COC(=O)C(N)c1cccc(-c2ccc3cnn(-c4cccc(C)n4)c3c2)n1 (stereo not drawn) [Example 272, methyl 2-amino-2-(6-(1-(6-methylpyridin-2-yl)-1H-indazol-6-yl)pyridin-2-yl)acetate] | 100 to 1000 |
| Cc1cccc(-n2ncc3ccc(-c4cccc(C(N)C(=O)O)n4)cc32)n1 (stereo not drawn) [Example 273, 2-amino-2-(6-(1-(6-methylpyridin-2-yl)-1H-indazol-6-yl)pyridin-2-yl)acetic acid] | < 100 |
| COCc1cccc(-n2ncc3ccc(-c4cccc(C(C)N)n4)cc32)n1 (stereo not drawn) [Example 279, 1-(6-(1-(6-(methoxymethyl)pyridin-2-yl)-1H-indazol-6-yl)pyridin-2-yl)ethanamine] | < 100 |
| CCCC(N)c1cccc(-c2ccc3cnn(-c4cccc(CO)n4)c3c2)n1 (stereo not drawn) [Example 280, (6-(6-(6-(1-aminobutyl)pyridin-2-yl)-1H-indazol-1-yl)pyridin-2-yl)methanol] | < 100 |
| Cc1cccc(-n2ncc3ccc(-c4ccc(C)c(C(C)N)n4)cc32)n1 (stereo not drawn) [Example 281, 1-(3-methyl-6-(1-(6-methylpyridin-2-yl)-1H-indazol-6-yl)pyridin-2-yl)ethanamine] | < 100 |
| Cc1csc(-n2ncc3ccc(-c4cccc(C(C)N)n4)cc32)c1 (stereo not drawn) [Example 282, 1-(6-(1-(4-methylthiophen-2-yl)-1H-indazol-6-yl)pyridin-2-yl)ethanamine] | 1000 to 10000 |
| CC(N)c1cccc(-c2ccc3cnn(-c4cccc(C(C)O)n4)c3c2)n1 (stereo not drawn) [Example 284, 1-(6-(6-(6-(1-aminoethyl)pyridin-2-yl)-1H-indazol-1-yl)pyridin-2-yl)ethanol] | < 100 |
| Cc1cccc(-n2ncc3ccc(-c4coc(CN)n4)cc32)n1 [Example 285, (4-(1-(6-methylpyridin-2-yl)-1H-indazol-6-yl)oxazol-2-yl)methanamine] | 1000 to 10000 |
| CC(N)c1cccc(-c2ccc3cnn(-c4cccc(CN)n4)c3c2)n1 (stereo not drawn) [Example 287, 1-(6-(1-(6-(aminomethyl)pyridin-2-yl)-1H-indazol-6-yl)pyridin-2-yl)ethanamine] | 100 to 1000 |
| CC(N)c1cccc(-c2ccc3cnn(-c4cccc(C(C)(C)S(C)(=O)=O)n4)c3c2)n1 (stereo not drawn) [Example 289, 1-(6-(1-(6-(2-(methylsulfonyl)propan-2-yl)pyridin-2-yl)-1H-indazol-6-yl)pyridin-2-yl)ethanamine] | 1000 to 10000 |
| CC(N)c1cccc(-c2ccc3cnn(-c4cccc(C5(C#N)CC5)n4)c3c2)n1 (stereo not drawn) [Example 290, 1-(6-(6-(6-(1-aminoethyl)pyridin-2-yl)-1H-indazole-1-yl)pyridin-2-yl)cyclopropanecarbonitrile] | < 100 |
| NCc1cccc(-c2ccc3cnn(-c4cccc(CO)n4)c3c2)n1 [Example 291, (6-(6-(6-(aminomethyl)pyridin-2-yl)-1H-indazol-1-yl)pyridin-2-yl)methanol] | < 100 |
| CCc1cccc(-c2ncc3ccc(-c4cccc(C(C)N)n4)cn23)n1 (stereo not drawn) [Example 293, 1-(6-(3-(6-ethylpyridin-2-yl)imidazo[1,5-a]pyridin-6-yl)pyridin-2-yl)ethanamine] | < 100 |
| Cc1cccc(-n2ncc3c(-c4ncc[nH]4)cc(-c4cccc(C(C)N)n4)cc32)n1 (stereo not drawn) [Example 295, 1-(6-(4-(1H-imidazol-2-yl)-1-(6-methylpyridin-2-yl)-1H-indazol-6-yl)pyridin-2-yl)ethanamine] | < 100 |
| Cc1ccnc(-n2ncc3ccc(-c4cccc(C(C)N)n4)cc32)n1 (stereo not drawn) [Example 296, 1-(6-(1-(4-methylpyrimidin-2-yl)-1H-indazol-6-yl)pyridin-2-yl)ethanamine] | 1000 to 10000 |
| Cc1cccc(-n2ncc3ccc(-c4cccc(C(C)(C)N)n4)cc32)n1 [Example 298, 2-(6-(1-(6-methylpyridin-2-yl)-1H-indazol-6-yl)pyridin-2-yl)propan-2-amine] | 100 to 1000 |
| Cc1cccc(-n2ncc3ccc(-c4cn(C)c(C(C)O)n4)cc32)n1 (stereo not drawn) [Example 299, 1-(1-methyl-4-(1-(6-methylpyridin-2-yl)-1H-indazol-6-yl)-1H-imidazol-2-yl)ethanol] | 1000 to 10000 |
| Cc1cccc(-n2ncc3ccc(-c4cn(C)c(CN)n4)cc32)n1 [Example 300, (1-methyl-4-(1-(6-methylpyridin-2-yl)-1H-indazol-6-yl)-1H-imidazol-2-yl)methanamine] | 1000 to 10000 |

The remaining lines, values ahead:

| IC50 [nM] | Structure (SMILES) |
| --- | --- |
| 100 to 1000 | Cc1cccc(-n2ncc3ccc(-c4cccc(C(N)C(F)(F)F)n4)cc32)n1 (stereo not drawn) [Example 259, 2,2,2-trifluoro-1-(6-(1-(6-methylpyridin-2-yl)-1H-indazol-6-yl)pyridin-2-yl)ethanamine] |
| 100 to 1000 | Cc1cccc(-n2ncc3ccc(-c4cccc(C(N)CC(=O)O)n4)cc32)n1 (stereo not drawn) [Example 260, 3-amino-3-(6-(1-(6-methylpyridin-2-yl)-1H-indazol-6-yl)pyridin-2-yl)propanoic acid] |
| < 100 | CCC(N)c1cccc(-c2ccc3cnn(-c4cccc(C)n4)c3c2)n1 (stereo not drawn) [Example 263, 1-(6-(1-(6-methylpyridin-2-yl)-1H-indazol-6-yl)pyridin-2-yl)propan-1-amine] |
| < 100 | CCC[C@@H](N)c1cccc(-c2ccc3cnn(-c4cccc(C)n4)c3c2)n1 [Example 264, (R)-1-(6-(1-(6-methylpyridin-2-yl)-1H-indazol-6-yl)pyridin-2-yl)butan-1-amine] |
| < 100 | CCCC(N)c1cccc(-c2ccc3cnn(-c4cccc(C(F)(F)F)n4)c3c2)n1 (stereo not drawn) [Example 268, 1-(6-(1-(6-(trifluoromethyl)pyridin-2-yl)-1H-indazol-6-yl)pyridin-2-yl)butan-1-amine] |
| < 100 | CCC(N)c1cccc(-c2ccc3cnn(-c4cccc(C(N)=O)n4)c3c2)n1 (stereo not drawn) [Example 269, 6-(6-(6-(1-aminopropyl)pyridin-2-yl)-1H-indazol-1-yl)picolinamide] |
| < 100 | CC(N)c1cc(N)cc(-c2ccc3cnn(-c4cccc(C(F)(F)F)n4)c3c2)n1 (stereo not drawn) [Example 270, 2-(1-aminoethyl)-6-(1-(6-(trifluoromethyl)pyridin-2-yl)-1H-indazol-6-yl)pyridin-4-amine] |
| < 100 | Cc1cccc(-n2ncc3ccc(-c4cccc(C(N)CO)n4)cc32)n1 (stereo not drawn) [Example 271, 2-amino-2-(6-(1-(6-methylpyridin-2-yl)-1H-indazol-6-yl)pyridin-2-yl)ethanol] |
| < 100 | CCCC(N)c1cccc(-c2ccc3cnn(-c4cccc(C(N)=O)n4)c3c2)n1 (stereo not drawn) [Example 274, 6-(6-(6-(1-aminobutyl)pyridin-2-yl)-1H-indazol-1-yl)picolinamide] |
| < 100 | CC(N)c1cccc(-c2ccc3cnn(-c4cccc(C(C)(C)O)n4)c3c2)n1 (stereo not drawn) [Example 278, 2-(6-(6-(6-(1-aminoethyl)pyridin-2-yl)-1H-indazol-1-yl)pyridin-2-yl)propan-2-ol] |
| < 100 | CCCc1cccc(-n2ncc3ccc(-c4cccc(C(C)N)n4)cc32)n1 (stereo not drawn) [Example 283, 1-(6-(1-(6-propylpyridin-2-yl)-1H-indazol-6-yl)pyridin-2-yl)ethanamine] |
| < 100 | CC(N)c1cccc(-c2ccc3cnn(-c4cccc(C(C)(C)C)n4)c3c2)n1 (stereo not drawn) [Example 286, 1-(6-(1-(6-(tert-butyl)pyridin-2-yl)-1H-indazol-6-yl)pyridin-2-yl)ethanamine] |
| 100 to 1000 | CC(N)c1cccc(-c2ccc3cnn(-c4cccc(C(C)(C)C#N)n4)c3c2)n1 (stereo not drawn) [Example 288, 2-(6-(6-(6-(1-aminoethyl)pyridin-2-yl)-1H-indazol-1-yl)pyridin-2-yl)-2-methylpropanenitrile] |
| 1000 to 10000 | CC(N)c1cccc(-c2ccc3cnn(-c4cccc(C(C)(C)N)n4)c3c2)n1 (stereo not drawn) [Example 292, 2-(6-(6-(6-(1-aminoethyl)pyridin-2-yl)-1H-indazol-1-yl)pyridin-2-yl)propan-2-amine] |
| < 100 | CCC(N)c1cccc(-c2ccc3cnn(-c4cccc(CO)n4)c3c2)n1 (stereo not drawn) [Example 294, (6-(6-(6-(1-aminopropyl)pyridin-2-yl)-1H-indazol-1-yl)pyridin-2-yl)methanol] |
| < 100 | CC(N)c1cccc(-c2ccc3cnn(-c4nccc(C(F)(F)F)n4)c3c2)n1 (stereo not drawn) [Example 297, 1-(6-(1-(4-(trifluoromethyl)pyrimidin-2-yl)-1H-indazol-6-yl)pyridin-2-yl)ethanamine] |
